For 1 compound, IC50 results are on record in BindingDB's records for doi:10.1021/jm00394a026 (Wyeth Laboratories, 1987).

The structures appear in SMILES notation.

This experiment addresses Arachidonate 5-lipoxygenase (Rattus norvegicus). The experiment is described as follows: Ability to inhibit 5-lipoxygenase in rat.

`CN1C[C@@H](c2cccc(OCc3ccc4ccccc4n3)c2)OC1=O` yielded an IC50 of 19.6 µM.

What is called IC50 is the midpoint of a concentration-inhibition curve. A high value points to lower potency.
